Measurements published in patent US6521629B2, “Quinoline and quinazoline compounds useful in therapy” (Pfizer Inc., priority 1997, dated 2003).

System: human prostate
Assay: Contractile responses of human prostate
Format: cell-based
Conditions: isolated human prostatic tissue strips; antagonism of (−)-noradrenaline contractions; single antagonist concentration incubated 2 hours
Procedure: Contractile Responses of Human Prostate
Prostatic tissue was cut into longitudinal strips (approximately 3×2×10 mm) and suspended in organ baths under a resting tension of 1 g in Krebs Ringer bicarbonate of the following composition (mM): NaCl (119), KCl (4.7), CaCl2 (2.5), KH2PO4 (1.2), MgSO4 (1.2), NaHCO3 (25), glucose (11), and gassed with 95% O2/5% CO2. The solution also contained 10 […]. Tissues were exposed to a sensitising dose of (−)-noradrenaline ([…]) and washed over a 45 minute period. Isometric contractions were obtained in response to cumulative additions of (−)-noradrenaline to obtain control curves in all tissues. A further curve was then generated in the presence or absence of antagonist (incubated for 2 hours). Antagonist affinity estimates (pA2) were determined using a single concentration of competing antagonist, pA2=−log [A]/(DR−1) where the dose ratio (DR), relative to corresponding controls, was produced by a single concentration of antagonist [A], assuming competitive antagonism and Schild regression close to unity.

SMILES: COc1cc2nc(N3CCCN(C(=O)N4CCOCC4)CC3)cc(N)c2c(-c2ncco2)c1OC [Example 28, 4-Amino-6,7-dimethoxy-2-[4-(4-morpholinecarbonyl)-1,4-diazepan-1-yl]-5-(oxazol-2-yl)quinoline]
- pA2 value: 9.2
